According to ChEMBL document CHEMBL2407047, “Molecular design, synthesis and biological evaluation of 1,4-dihydro-4-oxoquinoline ribonucleosides as TcGAPDH inhibitors with trypanocidal activity” (Bioorg Med Chem Lett, 2013):
The source made the active and inactive calls. The rule behind the calls is not given here.

Experiments:
Saccharomyces cerevisiae [1] = test: Effect on Saccharomyces cerevisiae TDH1 up to 500 uM
Saccharomyces cerevisiae [2] = test: Effect on Saccharomyces cerevisiae TDH3 up to 500 uM
Saccharomyces cerevisiae [3] = test: Effect on Saccharomyces cerevisiae TDH2 up to 500 uM

| Activity (Saccharomyces cerevisiae [1]) | Activity (Saccharomyces cerevisiae [2]) | Activity (Saccharomyces cerevisiae [3]) | SMILES |
| --- | --- | --- | --- |
| inactive | inactive | inactive | Cc1ccc2c(=O)c(C(=O)O)cn([C@@H]3O[C@H](CO)[C@@H](O)[C@H]3O)c2c1 |
| inactive | inactive | inactive | O=C(O)c1cn([C@@H]2O[C@H](CO)[C@@H](O)[C@H]2O)c2ccc(Cl)cc2c1=O |
| inactive | inactive | inactive | COc1ccc2c(c1)c(=O)c(C(=O)O)cn2[C@@H]1O[C@H](CO)[C@@H](O)[C@H]1O |
| inactive | inactive | inactive | COc1ccc2c(=O)c(C(=O)O)cn([C@@H]3O[C@H](CO)[C@@H](O)[C@H]3O)c2c1 |
| inactive | inactive | inactive | O=C(O)c1cn([C@@H]2O[C@H](CO)[C@@H](O)[C@H]2O)c2cc(Br)ccc2c1=O |
| inactive | inactive | inactive | O=C(O)c1cn([C@@H]2O[C@H](CO)[C@@H](O)[C@H]2O)c2ccc(Br)cc2c1=O |
| inactive | inactive | inactive | Cc1ccc2c(c1)c(=O)c(C(=O)O)cn2[C@@H]1O[C@H](CO)[C@@H](O)[C@H]1O |
